In patent publication US20250059139A1, “COMPOUNDS FOR TREATMENT OF CANCER” (THE JOHNS HOPKINS UNIVERSITY, priority 2021, published 2025):

Tests used:
[1] = system: prostate cancer xenografts; details: daily oral 10 mg/kg/d; cited from earlier work
[2] = cited from earlier work
[3] = system: LvCaP-3 human prostate cancer PDXs; experiment: In vivo growth of LvCaP-3 xenografts in castrate hosts; details: daily oral 10 mg/kg
From the text: (§1) Prostate Cancer Models. The source, history, and characteristics of the human prostate cancer cell lines and PDXs used, as well as cell culture conditions for their in vitro maintenance and the in vivo protocol for xenograft growth in triple immune-deficient NSG (i.e. NOD.Cg-PrkdcScidIl2rgtmlWji/Szj), adult (>8 week old) male mice obtained from the Sidney Kimmel Comprehensive Cancer Center (SKCCC) Animal Core Facility are described previously (Isaacs 2013; Brennen et al. JCI Insight. 2021, 6(8):e146827; Zhu et al. Oncogene 2020, 39(45): 6935-6949). […] In vitro growth curves were determined as described (Isaacs 2013). In vivo growth response to oral daily TasQ (10 mg/kg/d) of TRAMP-C2 mouse prostate cancers was evaluated in C57BL/6J syngeneic wild type vs. NOX-2 vs. iNOS null male mice obtained from Jackson Laboratory (Bar Harbor, ME). Growth response to oral daily TasQ (10 mg/kg/d) of TRAMP-C2 and B6CaP mouse prostate cancers was also evaluated in S100A9 null C57BL′6J male mice obtained from Dmitry Gabrilovich (Wistar Institute). […] In vitro growth curves were determined as described (Isaacs 2013). Growth response to daily oral TasQ vs. ESATA-20 (both at 10 mg/kg/d) of Myc-CaP-CR mouse prostate cancer was evaluated in syngeneic FVB/NJ castrate male mice from Jackson Laboratory. […]

[4] = system: CWR-22Rv1 dominant-positive mutant HIF-1α cells; experiment: In vivo growth of CWR-22Rv1 xenografts expressing dominant-positive mutant HIF-1α; design: species or system human; details: daily oral 10 mg/kg/d
From the text: as §1

[5] = system: AHR protein in LNCaP cells; experiment: AHR translocation and downregulation in LNCaP cells (immunoblot); assay type: cell-based, human; details: TasQ 10 μM
Procedure: Western Blot Analysis. Analysis and quantification of protein expression via immunoblot was performed as previously described (Brennen 2021). All assays were performed with total cell lysates from an equal number (i.e., 100,000) of cells loaded per lane for accurate comparisons across cell lines and conditions.

[6] = system: human prostate cancer cell lines; experiment: In vitro growth of human prostate cancer cell lines; assay type: cell-based; details: CWR22Rv1, 3 of the 4 lines (FIGS. 48A-48C: BCap-1, LgCap-1, CWR-22Rv1)
From the text: as §1

Compound	enhancement of hypoxia [1] [fold]	pO2 in the TME [1]	blood concentrations maintained ([2]; daily oral 10 mg/kg/d) [nM]	serum nadir ([2]; oral 5 mg/kg/d, at 24 hrs) [µM]	inhibition of growth of LvCaP-3 xenografts at the end of study [3]	growth inhibition of dominant-positive mutant HIF-1α tumors [4] [%]	time to downregulation of the AHR protein [5] [h]	IC50 [6] [µM]
COc1cccc2c1c(O)c(C(=O)N(C)c1ccc(C(F)(F)F)cc1)c(=O)n2C [TasQ, Tasquinimod]	> 2	1.4+/−1.0 mmHg	> 1000	1.08 ± 0.21	⅔	< 25	2 to 4	–
COc1cccc2c1c(O)c(C(=O)N(c1ccc(C(F)(F)F)cc1)C1CCCCC1)c(=O)n2C [ESATA-20]	–	–	–	–	–	–	–	< 10
